Conditions: Liquid, Vibrating tube method

c1ccsc1 [thiophene]
Conditions	mass density [kg/m3]
293.15 K, 101 kPa	1063.59
303.15 K, 101 kPa	1051.55
313.09 K, 1029 kPa	1040.96
313.09 K, 1969 kPa	1041.84
313.09 K, 2970 kPa	1042.78
313.09 K, 3987 kPa	1043.71
313.09 K, 5055 kPa	1044.72
313.09 K, 5952 kPa	1045.51
313.09 K, 6937 kPa	1046.43
313.09 K, 8032 kPa	1047.39
313.09 K, 9218 kPa	1048.44
313.09 K, 10045 kPa	1049.18
313.09 K, 11012 kPa	1050.03
313.09 K, 12014 kPa	1050.9
313.09 K, 12995 kPa	1051.74
313.09 K, 13961 kPa	1052.59
313.09 K, 14970 kPa	1053.43
313.09 K, 15953 kPa	1054.26
313.09 K, 17004 kPa	1055.16
313.09 K, 18003 kPa	1055.95
313.09 K, 18904 kPa	1056.76
313.15 K, 101 kPa	1039.32
323.01 K, 1047 kPa	1028.97
323.01 K, 2059 kPa	1029.98
323.01 K, 3070 kPa	1031.02
323.01 K, 4047 kPa	1031.99
323.01 K, 5002 kPa	1032.9
323.01 K, 6005 kPa	1033.9
323.01 K, 7068 kPa	1034.92
323.01 K, 8021 kPa	1035.81
323.01 K, 9013 kPa	1036.76
323.01 K, 10005 kPa	1037.67
323.01 K, 10991 kPa	1038.62
323.01 K, 12034 kPa	1039.58
323.01 K, 12977 kPa	1040.44
323.01 K, 13999 kPa	1041.38
323.01 K, 14991 kPa	1042.26
323.01 K, 15995 kPa	1043.17
323.01 K, 16998 kPa	1044.03
323.01 K, 17983 kPa	1044.93
323.01 K, 18951 kPa	1045.78
323.15 K, 101 kPa	1026.98
332.85 K, 1015 kPa	1016.93
332.85 K, 2035 kPa	1018
332.85 K, 3004 kPa	1019.06
332.85 K, 3964 kPa	1020.05
332.85 K, 4991 kPa	1021.14
332.85 K, 6001 kPa	1022.17
332.85 K, 7014 kPa	1023.21
332.85 K, 7998 kPa	1024.2
332.85 K, 9009 kPa	1025.23
332.85 K, 9995 kPa	1026.19
332.85 K, 10989 kPa	1027.18
332.85 K, 12006 kPa	1028.17
332.85 K, 13009 kPa	1029.18
332.85 K, 13971 kPa	1030.09
332.85 K, 15006 kPa	1031.04
332.85 K, 15990 kPa	1032.01
332.85 K, 17050 kPa	1033.03
332.85 K, 17976 kPa	1033.88
332.85 K, 19018 kPa	1034.92
333.15 K, 101 kPa	1014.58
342.77 K, 1039 kPa	1004.75
342.77 K, 2072 kPa	1005.93
342.77 K, 3033 kPa	1007.02
342.77 K, 4023 kPa	1008.17
342.77 K, 5027 kPa	1009.26
342.77 K, 6033 kPa	1010.36
342.77 K, 7008 kPa	1011.44
342.77 K, 7998 kPa	1012.5
342.77 K, 9005 kPa	1013.59
342.77 K, 10000 kPa	1014.65
342.77 K, 10963 kPa	1015.65
342.77 K, 12009 kPa	1016.72
342.77 K, 13023 kPa	1017.82
342.77 K, 13928 kPa	1018.74
342.77 K, 15009 kPa	1019.83
342.77 K, 15998 kPa	1020.79
342.77 K, 17025 kPa	1021.8
342.77 K, 17995 kPa	1022.8
342.77 K, 19013 kPa	1023.79
342.77 K, 20001 kPa	1024.73
343.15 K, 101 kPa	1002.15
352.67 K, 1064 kPa	992.39
352.67 K, 2003 kPa	993.54
352.67 K, 3024 kPa	994.79
352.67 K, 4003 kPa	995.98
352.67 K, 5048 kPa	997.22
352.67 K, 6013 kPa	998.36
352.67 K, 7013 kPa	999.51
352.67 K, 8050 kPa	1000.73
352.67 K, 9018 kPa	1001.82
352.67 K, 10003 kPa	1002.93
352.67 K, 11003 kPa	1004.07
352.67 K, 12004 kPa	1005.16
352.67 K, 12998 kPa	1006.25
352.67 K, 14005 kPa	1007.34
352.67 K, 15038 kPa	1008.46
352.67 K, 16006 kPa	1009.49
352.67 K, 17027 kPa	1010.58
352.67 K, 18001 kPa	1011.6
352.67 K, 19031 kPa	1012.65
352.67 K, 20017 kPa	1013.74
353.15 K, 101 kPa	989.76
362.51 K, 1007 kPa	979.8
362.51 K, 2022 kPa	981.13
362.51 K, 3029 kPa	982.49
362.51 K, 4004 kPa	983.74
362.51 K, 5006 kPa	985.01
362.51 K, 6003 kPa	986.27
362.51 K, 6999 kPa	987.5
362.51 K, 7993 kPa	988.73
362.51 K, 9007 kPa	989.99
362.51 K, 9993 kPa	991.16
362.51 K, 10997 kPa	992.36
362.51 K, 11993 kPa	993.56
362.51 K, 12838 kPa	994.53
362.51 K, 14038 kPa	995.94
362.51 K, 15044 kPa	997.1
362.51 K, 16029 kPa	998.18
362.51 K, 17006 kPa	999.27
362.51 K, 18016 kPa	1000.4
362.51 K, 18987 kPa	1001.47

Source: the NIST ThermoML archive (doi:10.1016/j.fluid.2005.07.017)
